Experimental data: patent US20070167447A1, “Indole acetamides as inhibitors of the hepatitis c virus ns5b polymerase” (priority 2003, published 2007)
Where a name gives a salt, the structure may show the parent alone.

Assays:
[1] = molecular target: T1, HCV RNA dependent RNA polymerase (NS5B) (Hepatitis C virus genotype 1b, UniProt P26663); assay: In-vitro HCV NS5B enzyme inhibition assay; type: biochemical; conditions: NS5B enzyme 5 nM, 1 h at 22° C.
T1 construct: made in house; host or cells: insect cells infected with recombinant baculovirus (as described for the cited WO 96/37619)
T1 sequence (P26663 2420-3010): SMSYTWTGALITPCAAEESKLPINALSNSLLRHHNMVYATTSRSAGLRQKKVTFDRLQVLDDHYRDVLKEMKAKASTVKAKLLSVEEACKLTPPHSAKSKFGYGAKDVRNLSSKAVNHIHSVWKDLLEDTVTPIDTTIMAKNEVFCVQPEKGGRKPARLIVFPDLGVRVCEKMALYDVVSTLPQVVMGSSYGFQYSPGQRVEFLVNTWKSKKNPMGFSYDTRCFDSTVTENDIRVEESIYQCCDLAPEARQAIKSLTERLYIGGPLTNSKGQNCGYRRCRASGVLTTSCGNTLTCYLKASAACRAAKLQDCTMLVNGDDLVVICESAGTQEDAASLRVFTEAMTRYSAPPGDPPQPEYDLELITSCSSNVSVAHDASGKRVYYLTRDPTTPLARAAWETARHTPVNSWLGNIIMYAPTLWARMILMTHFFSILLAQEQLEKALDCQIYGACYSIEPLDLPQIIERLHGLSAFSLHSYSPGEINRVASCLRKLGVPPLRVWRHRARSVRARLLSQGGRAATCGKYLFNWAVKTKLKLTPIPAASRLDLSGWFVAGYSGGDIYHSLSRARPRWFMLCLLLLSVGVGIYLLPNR
Description: i) In-vitro HCV NS5B Enzyme Inhibition Assay
WO 96/37619 describes the production of recombinant HCV RdRp from insect cells infected with recombinant baculovirus encoding the enzyme. […] The reference describes a polymerisation assay using poly(A) and oligo(U) as a primer or an heteropolymeric template. Incorporation of tritiated UTP or NTPs is quantified by measuring acid-insoluble radioactivity. The present inventors have employed this assay to screen the various compounds described above as inhibitors of HCV RdRp.
(§1) Incorporation of radioactive UMP was measured as follows. The standard reaction (50 μl) was carried out in a buffer containing 20 mM tris/HCl pH 7.5, 5 mM MgCl2, 1 mM DTT, 50 mM NaCl, 0.03% N-octylglucoside, 1 μCi [^3H]-UTP (40 Ci/mmol, NEN), 10 μM UTP and 10 μg/ml poly(A) or 5 μM NTPs and 5 μg/ml heteropolymeric template. Oligo(U)12 (1 μg/ml, Genset) was added as a primer in the assay working on Poly(A) template. The final NS5B enzyme concentration was 5 nM. The order of assembly was: 1) compound, 2) enzyme, 3) template/primer, 4) NTP. After 1 h incubation at 22° C. the reaction was stopped by adding 50 μl of 20% TCA and applying samples to DE81 filters. The filters were washed thoroughly with 5% TCA containing 1M Na2HPO4/NaH2PO4, pH 7.0, rinsed with water and then ethanol, air dried, and the filter-bound radioactivity was measured in the scintillation counter. […]

[2] = test system: subgenomic HCV replicon in Huh-7 cells; assay: Cell based HCV sub-genomic replication assay (NS3 Cell-ELISA); conditions: Hepatitis C virus; Huh-7 replicon cells, 96 hours, NS3 expression
Procedure: as §1
Cell clones that stably maintain subgenomic HCV replicon were obtained by transfecting Huh-7 cells with an RNA replicon identical to I377neo/NS3-3′/wt described by Lohmann et al. (1999) (EMBL-genbank No. AJ242652), followed by selection with neomycin sulfate (G418). […] Each condition was tested in duplicate and average absorbance values were used for calculations. […] After washing again as above, the reaction was developed with p-Nitrophenyl phosphate disodium substrate (Sigma) and the absorbance at 405/620 nm read at intervals. […]

CN(CC1CCCCN1C)C(=O)Cn1c(-c2ccccc2)c(C2CCCCC2)c2ccc(C(=O)O)cc21 (centres unmarked) [Example 15, 3-cyclohexyl-1-(2-{methyl[(1-methylpiperidin-2-yl)methyl]amino}-2-oxoethyl)-2-phenyl-1H-indole-6-carboxylic acid trifluoroacetate]
IC50 [1]: 14 nM
EC50 [2]: 270 nM
